Test results published in PubChem BioAssay (NCI).
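A five-concentration, 48-hour dose response in 96-well plates underlies each endpoint, interpolated linearly between surrounding concentrations. TGI is the concentration that stops growth completely.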

Columns and labels:
Assay in all cases: DTP human tumour cell line panel, 48 h
XF 498 CNS = system: XF 498 CNS
U251 CNS = system: U251 CNS
NCI-H23 lung = system: NCI-H23 lung
RPMI-8226 leukemia = system: RPMI-8226 leukemia
RXF 393 renal = system: RXF 393 renal
SR leukemia = system: SR leukemia
KM12 colon = system: KM12 colon
HCT-15 colon = system: HCT-15 colon
OVCAR-8 ovarian = system: OVCAR-8 ovarian
A549 NSCLC = system: A549 NSCLC
HT29 colon = system: HT29 colon
MOLT-4 leukemia = system: MOLT-4 leukemia
SW-620 colon = system: SW-620 colon
SNB-75 CNS = system: SNB-75 CNS
CAKI-1 renal = system: CAKI-1 renal
OVCAR-5 ovarian = system: OVCAR-5 ovarian
UACC-62 melanoma = system: UACC-62 melanoma
NCI-H226 lung = system: NCI-H226 lung
TK-10 renal = system: TK-10 renal
SN12C renal = system: SN12C renal
DMS 273 small cell lung = system: DMS 273 small cell lung
KM20L2 colon = system: KM20L2 colon
HL-60(TB) leukemia = system: HL-60(TB) leukemia
EKVX NSCLC = system: EKVX NSCLC
OVCAR-4 ovarian = system: OVCAR-4 ovarian
UO-31 renal = system: UO-31 renal
OVCAR-3 ovarian = system: OVCAR-3 ovarian
SF-295 CNS = system: SF-295 CNS
DLD-1 colon = system: DLD-1 colon
ACHN renal = system: ACHN renal
HCC-2998 colon = system: HCC-2998 colon
SK-MEL-28 melanoma = system: SK-MEL-28 melanoma
COLO 205 colon = system: COLO 205 colon
CCRF-CEM leukemia = system: CCRF-CEM leukemia
RXF-631 renal = system: RXF-631 renal
LXFL 529 NSCLC = system: LXFL 529 NSCLC
HCT-116 colon = system: HCT-116 colon
LOX IMVI melanoma = system: LOX IMVI melanoma
UACC-257 melanoma = system: UACC-257 melanoma
K-562 leukemia = system: K-562 leukemia
SF-539 CNS = system: SF-539 CNS
SK-MEL-2 melanoma = system: SK-MEL-2 melanoma
SNB-19 CNS = system: SNB-19 CNS
SK-MEL-5 melanoma = system: SK-MEL-5 melanoma
M14 melanoma = system: M14 melanoma
786-0 renal = system: 786-0 renal
SK-OV-3 ovarian = system: SK-OV-3 ovarian
HOP-92 NSCLC = system: HOP-92 NSCLC
SF-268 CNS = system: SF-268 CNS
MALME-3M melanoma = system: MALME-3M melanoma
NCI-H522 lung = system: NCI-H522 lung
IGROV1 ovarian = system: IGROV1 ovarian
NCI-H460 lung = system: NCI-H460 lung
DMS 114 small cell lung = system: DMS 114 small cell lung

Measured: TGI

O=C(O)CNc1c2ccccc2nc2ccccc12
> 100 µM: XF 498 CNS | U251 CNS | NCI-H23 lung | RPMI-8226 leukemia | RXF 393 renal | SR leukemia | KM12 colon | HCT-15 colon | OVCAR-8 ovarian | A549 NSCLC | HT29 colon | MOLT-4 leukemia | SW-620 colon | SNB-75 CNS | CAKI-1 renal | OVCAR-5 ovarian | UACC-62 melanoma | NCI-H226 lung | TK-10 renal | SN12C renal | DMS 273 small cell lung | KM20L2 colon | HL-60(TB) leukemia | EKVX NSCLC | OVCAR-4 ovarian | UO-31 renal | OVCAR-3 ovarian | SF-295 CNS | DLD-1 colon | ACHN renal | HCC-2998 colon | SK-MEL-28 melanoma | COLO 205 colon | CCRF-CEM leukemia | RXF-631 renal | LXFL 529 NSCLC | HCT-116 colon | LOX IMVI melanoma | UACC-257 melanoma | K-562 leukemia | SF-539 CNS | SK-MEL-2 melanoma | SNB-19 CNS | SK-MEL-5 melanoma | M14 melanoma | 786-0 renal | SK-OV-3 ovarian | HOP-92 NSCLC | SF-268 CNS | MALME-3M melanoma | NCI-H522 lung | IGROV1 ovarian | NCI-H460 lung | DMS 114 small cell lung
